Measurements: PMC12030165, “Bioactivity of Synthesized Trifluoromethyl Thioxanthone Analogues” (Pharmaceuticals, 2025)

What was measured:
[1] = DPPH antioxidant activity assay
Description: To evaluate four synthesized compounds and Trolox (as a positive control), a 1 mg/mL concentration in methanol was first made from phenyl alcohol. The prepared solution was produced in concentrations of 1, 2, 3, 5, 7, 10, 20, 30, 50, and 80 µg/mL. The DPPH reagent was then diluted in 0.002% w/v methanol and combined in a […] ratio with the previously produced working concentrations. A blank solution of 100% methanol was used. All solutions were incubated at room temperature for 30 min in a dark environment. Their absorbance values were then determined using a UV-visible spectrophotometer set at a wavelength of 517 nm. The antioxidant capacity of each chemical compound fraction and Trolox were calculated using the following formula:% inhibition = ((Abs blank − Abs Sample)/Abs Blank) × 100 where:
Abs blank: Absorbance value of the control reaction containing all reagents except the synthesized compound.
Abs sample: The absorbance value of the synthesized compound [48].

[2] = target: T1, porcine pancreatic α-amylase (Sus scrofa, UniProt P00690); test: α-Amylase inhibition assay (DNSA); assay type: biochemical
T1 construct: purchased MP Biochemicals (Illkirch, France)
T1 sequence (P00690 16-511): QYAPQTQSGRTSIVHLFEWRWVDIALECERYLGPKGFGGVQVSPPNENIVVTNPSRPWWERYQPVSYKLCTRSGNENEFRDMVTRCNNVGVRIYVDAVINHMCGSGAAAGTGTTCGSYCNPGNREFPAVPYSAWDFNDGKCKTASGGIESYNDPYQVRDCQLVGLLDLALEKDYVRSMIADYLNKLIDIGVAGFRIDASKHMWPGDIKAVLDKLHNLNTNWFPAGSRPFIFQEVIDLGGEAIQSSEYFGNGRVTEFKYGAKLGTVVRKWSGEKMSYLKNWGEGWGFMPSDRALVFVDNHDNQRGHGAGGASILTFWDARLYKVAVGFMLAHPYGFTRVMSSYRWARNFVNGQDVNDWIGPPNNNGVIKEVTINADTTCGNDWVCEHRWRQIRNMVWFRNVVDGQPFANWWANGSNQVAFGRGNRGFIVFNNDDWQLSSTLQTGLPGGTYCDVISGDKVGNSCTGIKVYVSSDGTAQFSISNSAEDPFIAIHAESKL
Description: Each product was initially dissolved in a few milliliters of 10% DMSO and then further diluted in a buffer solution (0.02 M Na2HPO4/NaH2PO4, 0.006 M NaCl, at pH 6.9) to prepare stock solutions at a concentration of 1000 µg/mL. From these stock solutions, further dilutions were made to obtain concentrations of 20, 50, and 70 µg/mL, using 10% DMSO as a diluent. A porcine pancreatic α-amylase enzyme solution was prepared at 2 units/mL concentration in 10% DMSO. For the working solutions, 0.2 mL of the enzyme solution was mixed with 0.2 mL of each product, and the mixture was incubated for 10 min at 30 °C. Following the incubation, 0.2 mL of a freshly prepared 1% starch aqueous solution was added to each working solution, which was then incubated for an additional 3 min. The reaction was halted by adding 0.2 mL of dinitrosalicylic acid (DNSA) yellow color reagent. Each working solution was diluted with 5 mL of distilled water and boiled for 10 min in a water bath at 90 °C. After cooling the mixture to room temperature, the absorbance was measured at 540 nm. The blank control was prepared similarly but replaced the product fraction with 0.2 mL of the buffer as mentioned above. Acarbose was used as the standard reference and was subjected to the same experimental procedures. The α-amylase inhibitory activity was calculated using the following equation [49]:% of α amylase inhibition = (AB − AE)/AB × 100%

COX-1 = target: T2, COX-1 (Homo sapiens, UniProt P23219); test: COX (human) Inhibitor Screening Assay, COX-1; assay type: biochemical
T2 construct: purchased Cayman Chemicals 701230
Description: (§1) Our synthesized compounds’ COX-1 and COX-2 inhibitory activities were evaluated using the COX (human) Inhibitor Screening Assay Kit supplied by Cayman Chemicals (catalog no. 701230, Ann Arbor, MI, USA). The preparation of reagents and testing procedures were conducted according to the manufacturer’s recommendations. Two concentrations of the inhibitors (10 µM and 50 µM) were dissolved in a minimal amount of dimethyl sulfoxide (DMSO) and incubated with a mixture of COX-1 or COX-2 enzyme and heme in a diluted reaction buffer for 10 min at 37 °C. The reaction was initiated by adding 10 µL of arachidonic acid, followed by a two-minute incubation at 37 °C. The reaction was halted by adding 30 µL of stannous chloride solution to each reaction tube and incubating for 5 min at room temperature. The resulting PGF2α, produced by the COX reactions, was quantified using an enzyme-linked immunosorbent assay (ELISA). The 96-well plate was covered with plastic film and incubated for 18 h at room temperature on an orbital shaker. After incubation, the plate was rinsed five times with a wash buffer. Then, Ellman’s reagent (200 µL) was added, and the plate was incubated for approximately 60–90 min at room temperature until the absorbance of the blank well was in the range of 0.3–0.8 at 405 nm. The plate was read using a Unilab Microplate Reader 6000. The inhibitory percentage was calculated for each concentration tested against the control. The IC50 values were derived from the concentration-inhibition response curve, and the selectivity index (SI) was calculated by dividing the IC50 for COX-2 by the IC50 for COX-1 [52].

COX-2 = target: T3, COX-2 (Homo sapiens, UniProt P35354); test: COX (human) Inhibitor Screening Assay, COX-2; assay type: biochemical; settings: for COX-2 Selectivity: ratio of COX-1 and COX-2 IC50
T3 construct: purchased Cayman Chemicals 701230
T3 sequence (P35354 18-604): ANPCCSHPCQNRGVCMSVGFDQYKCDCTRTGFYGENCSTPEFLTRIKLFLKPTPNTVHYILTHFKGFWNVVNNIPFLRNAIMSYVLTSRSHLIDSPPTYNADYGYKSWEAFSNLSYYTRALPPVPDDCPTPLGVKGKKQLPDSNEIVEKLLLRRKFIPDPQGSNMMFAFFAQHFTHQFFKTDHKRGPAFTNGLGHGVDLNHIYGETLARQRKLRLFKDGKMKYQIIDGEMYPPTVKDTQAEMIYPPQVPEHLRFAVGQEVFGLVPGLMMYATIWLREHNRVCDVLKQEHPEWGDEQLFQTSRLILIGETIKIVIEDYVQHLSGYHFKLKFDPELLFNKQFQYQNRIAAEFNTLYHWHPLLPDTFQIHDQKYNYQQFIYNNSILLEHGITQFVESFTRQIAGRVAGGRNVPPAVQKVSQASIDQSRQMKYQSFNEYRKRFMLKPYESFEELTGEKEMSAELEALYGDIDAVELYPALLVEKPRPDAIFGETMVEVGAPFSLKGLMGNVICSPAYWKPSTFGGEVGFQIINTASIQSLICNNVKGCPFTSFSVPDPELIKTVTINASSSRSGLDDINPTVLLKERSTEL
Description: as §1

T2 sequence (P23219 24-599): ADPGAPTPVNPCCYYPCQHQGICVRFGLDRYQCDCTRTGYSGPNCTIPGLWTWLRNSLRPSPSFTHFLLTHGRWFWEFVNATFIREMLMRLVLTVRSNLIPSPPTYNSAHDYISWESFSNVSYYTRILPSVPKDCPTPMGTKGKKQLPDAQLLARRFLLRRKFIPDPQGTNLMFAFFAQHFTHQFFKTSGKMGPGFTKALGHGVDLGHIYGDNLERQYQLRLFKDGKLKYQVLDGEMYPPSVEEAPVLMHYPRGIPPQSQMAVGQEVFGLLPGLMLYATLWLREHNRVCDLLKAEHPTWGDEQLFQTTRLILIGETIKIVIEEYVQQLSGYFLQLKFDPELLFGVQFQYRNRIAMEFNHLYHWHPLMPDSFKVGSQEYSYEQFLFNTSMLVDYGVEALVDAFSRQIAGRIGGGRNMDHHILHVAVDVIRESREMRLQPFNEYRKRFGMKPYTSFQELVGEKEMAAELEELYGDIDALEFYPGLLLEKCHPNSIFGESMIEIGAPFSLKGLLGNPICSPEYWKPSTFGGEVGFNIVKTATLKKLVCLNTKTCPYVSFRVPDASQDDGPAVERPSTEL

| Compound | % inhibition of DPPH radical (radical scavenging) ([1]; 1 µg/mL) [%] | % inhibition of DPPH radical (radical scavenging) ([1]; 2 µg/mL) [%] | % inhibition of DPPH radical (radical scavenging) ([1]; 3 µg/mL) [%] | % inhibition of DPPH radical (radical scavenging) ([1]; 5 µg/mL) [%] | % inhibition of DPPH radical (radical scavenging) ([1]; 7 µg/mL) [%] | % inhibition of DPPH radical (radical scavenging) ([1]; 10 µg/mL) [%] | % inhibition of DPPH radical (radical scavenging) ([1]; 20 µg/mL) [%] | % inhibition of DPPH radical (radical scavenging) ([1]; 30 µg/mL) [%] | % inhibition of DPPH radical (radical scavenging) ([1]; 50 µg/mL) [%] | % inhibition of DPPH radical (radical scavenging) ([1]; 80 µg/mL) [%] | IC50 of the α-Amylase inhibition activity [2] | IC50 (COX-1) [nM] | IC50 (COX-2) [nM] | COX-2 Selectivity (COX-2) | IC50 [2] [nM] |
| --- | --- | --- | --- | --- | --- | --- | --- | --- | --- | --- | --- | --- | --- | --- | --- |
| S-(9-benzyl-2-(trifluoromethyl)-9H-thioxanthen-9-yl)-L-cysteine [Compound 3] | 31.3 ± 2.3 | 36.4 ± 3.5 | 39.9 ± 3.6 | 39.9 ± 4.1 | 40.1 ± 3.8 | 40.2 ± 5.1 | 40.4 ± 5.2 | 41.9 ± 4.9 | 42.9 ± 3.2 | 46.6 ± 2.4 | no inhibitory effect | 32.5 ± 0.53 | 25.9 ± 0.45 | 1.3 | – |
| OC1(c2ccccc2)c2ccccc2Sc2ccc(C(F)(F)F)cc21 (stereo not drawn) [Compound 1, 9-phenyl-2-(trifluoromethyl)-9H-thioxanthen-9-ol] | 7.1 ± 1.2 | 7.6 ± 2.3 | 8.2 ± 1.5 | 8.6 ± 3.1 | 8.9 ± 2.3 | 9.3 ± 1.6 | 9.9 ± 2.5 | 12.6 ± 3.2 | 12.9 ± 2.6 | 16.3 ± 4.3 | – | 40.2 ± 0.41 | 27.1 ± 0.6 | 1.5 | 283000 |
| OC1(Cc2ccccc2)c2ccccc2Sc2ccc(C(F)(F)F)cc21 (stereo not drawn) [Compound 2, 9-benzyl-2-(trifluoromethyl)-9H-thioxanthen-9-ol] | 36.3 ± 2.4 | 37.3 ± 3.9 | 39.3 ± 4.2 | 39.5 ± 3.4 | 39.7 ± 3.6 | 40.1 ± 4.9 | 40.7 ± 2.5 | 40.7 ± 3.8 | 41.6 ± 5.1 | 42.2 ± 3.9 | – | 14 ± 0.64 | 74.1 ± 0.48 | 0.2 | 60200 ± 800 |
